This note sets out measurements from ChEMBL document CHEMBL5291721, “A preclinical secondary pharmacology resource illuminates target-adverse drug reaction associations of marketed drugs” (Nat Commun, 2023).

Experiment [1] addresses T1, Muscarinic acetylcholine receptor M2 (Homo sapiens, UniProt P08172).
T1 sequence (P08172 whole entry): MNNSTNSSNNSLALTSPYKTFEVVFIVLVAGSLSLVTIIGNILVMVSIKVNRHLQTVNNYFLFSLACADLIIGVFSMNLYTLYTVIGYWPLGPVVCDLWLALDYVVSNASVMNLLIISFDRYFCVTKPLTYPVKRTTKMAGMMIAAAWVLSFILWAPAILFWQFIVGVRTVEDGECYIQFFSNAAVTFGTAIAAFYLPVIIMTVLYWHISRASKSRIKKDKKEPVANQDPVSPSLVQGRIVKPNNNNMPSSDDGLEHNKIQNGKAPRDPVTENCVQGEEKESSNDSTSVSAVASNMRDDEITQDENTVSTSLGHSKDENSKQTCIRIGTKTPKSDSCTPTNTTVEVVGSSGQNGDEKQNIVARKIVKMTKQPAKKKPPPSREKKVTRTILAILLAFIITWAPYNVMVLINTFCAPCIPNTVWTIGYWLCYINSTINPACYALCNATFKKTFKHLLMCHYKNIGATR

Experiment [2] has as its target Prostaglandin G/H synthase 1 (Homo sapiens, UniProt P23219). It is filed as functional.
Experiment [3] has as its target Sodium-dependent noradrenaline transporter (Homo sapiens, UniProt P23975).
Another experiment has as its target T2, Thromboxane A2 receptor (Homo sapiens, UniProt P21731).
T2 sequence (P21731 whole entry): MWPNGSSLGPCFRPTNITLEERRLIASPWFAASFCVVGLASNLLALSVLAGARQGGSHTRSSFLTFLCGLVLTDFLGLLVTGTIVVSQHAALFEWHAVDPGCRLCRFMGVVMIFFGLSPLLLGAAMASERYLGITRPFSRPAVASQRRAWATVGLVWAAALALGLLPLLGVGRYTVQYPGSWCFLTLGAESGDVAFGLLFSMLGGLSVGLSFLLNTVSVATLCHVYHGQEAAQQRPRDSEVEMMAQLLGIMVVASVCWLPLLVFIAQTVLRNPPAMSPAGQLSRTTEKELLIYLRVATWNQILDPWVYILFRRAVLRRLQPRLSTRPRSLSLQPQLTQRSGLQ
It counts as functional, cell-based.

For the next experiment, the target named is T3, Progesterone receptor (Homo sapiens, UniProt P06401).
T3 sequence (P06401 whole entry): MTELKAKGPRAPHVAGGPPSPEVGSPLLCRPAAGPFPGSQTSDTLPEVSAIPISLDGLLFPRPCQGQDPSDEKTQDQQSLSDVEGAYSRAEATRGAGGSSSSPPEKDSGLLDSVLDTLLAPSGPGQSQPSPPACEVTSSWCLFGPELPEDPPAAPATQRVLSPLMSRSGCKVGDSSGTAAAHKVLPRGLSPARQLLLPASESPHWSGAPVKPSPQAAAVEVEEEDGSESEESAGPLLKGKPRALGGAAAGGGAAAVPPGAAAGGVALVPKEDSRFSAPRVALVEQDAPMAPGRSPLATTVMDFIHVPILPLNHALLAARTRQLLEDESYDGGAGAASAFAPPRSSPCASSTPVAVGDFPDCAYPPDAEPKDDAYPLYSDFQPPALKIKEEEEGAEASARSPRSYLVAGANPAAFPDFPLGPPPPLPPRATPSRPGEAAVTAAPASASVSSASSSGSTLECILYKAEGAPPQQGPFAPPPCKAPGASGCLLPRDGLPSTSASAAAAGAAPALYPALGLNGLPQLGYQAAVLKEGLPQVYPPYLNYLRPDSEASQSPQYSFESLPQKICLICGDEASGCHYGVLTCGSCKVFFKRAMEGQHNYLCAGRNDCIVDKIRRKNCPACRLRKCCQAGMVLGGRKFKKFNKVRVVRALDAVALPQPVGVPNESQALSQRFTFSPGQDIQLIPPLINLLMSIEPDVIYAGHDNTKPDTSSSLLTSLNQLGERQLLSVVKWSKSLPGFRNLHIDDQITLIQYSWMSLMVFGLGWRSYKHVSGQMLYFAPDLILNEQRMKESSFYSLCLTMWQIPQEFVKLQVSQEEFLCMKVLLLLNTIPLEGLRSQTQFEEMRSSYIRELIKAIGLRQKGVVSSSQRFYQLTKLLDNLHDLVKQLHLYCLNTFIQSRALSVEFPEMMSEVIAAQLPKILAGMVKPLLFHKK

In experiment [4] the target is cGMP-inhibited 3',5'-cyclic phosphodiesterase 3A (Homo sapiens, UniProt Q14432). It counts as functional.
The target of another experiment is Acetylcholinesterase (Homo sapiens, UniProt P22303). It counts as functional.
Experiment [5] addresses T4, Alpha-1A adrenergic receptor (Homo sapiens, UniProt P35348).
T4 sequence (P35348 whole entry): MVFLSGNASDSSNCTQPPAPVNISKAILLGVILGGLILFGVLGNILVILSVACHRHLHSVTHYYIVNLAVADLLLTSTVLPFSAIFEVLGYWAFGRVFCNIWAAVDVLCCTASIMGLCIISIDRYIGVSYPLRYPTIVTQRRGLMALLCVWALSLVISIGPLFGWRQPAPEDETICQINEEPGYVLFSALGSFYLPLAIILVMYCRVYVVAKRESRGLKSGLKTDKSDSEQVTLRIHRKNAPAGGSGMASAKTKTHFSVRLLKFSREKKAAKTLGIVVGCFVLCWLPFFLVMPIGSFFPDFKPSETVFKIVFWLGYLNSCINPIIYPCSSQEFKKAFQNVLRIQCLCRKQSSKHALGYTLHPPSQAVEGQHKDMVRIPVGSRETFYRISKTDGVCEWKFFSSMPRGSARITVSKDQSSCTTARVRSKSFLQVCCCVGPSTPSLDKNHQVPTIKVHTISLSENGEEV
It is filed as functional, cell-based.

Experiment [6] addresses T5, Amine oxidase [flavin-containing] A (Homo sapiens, UniProt P21397).
T5 sequence (P21397 whole entry): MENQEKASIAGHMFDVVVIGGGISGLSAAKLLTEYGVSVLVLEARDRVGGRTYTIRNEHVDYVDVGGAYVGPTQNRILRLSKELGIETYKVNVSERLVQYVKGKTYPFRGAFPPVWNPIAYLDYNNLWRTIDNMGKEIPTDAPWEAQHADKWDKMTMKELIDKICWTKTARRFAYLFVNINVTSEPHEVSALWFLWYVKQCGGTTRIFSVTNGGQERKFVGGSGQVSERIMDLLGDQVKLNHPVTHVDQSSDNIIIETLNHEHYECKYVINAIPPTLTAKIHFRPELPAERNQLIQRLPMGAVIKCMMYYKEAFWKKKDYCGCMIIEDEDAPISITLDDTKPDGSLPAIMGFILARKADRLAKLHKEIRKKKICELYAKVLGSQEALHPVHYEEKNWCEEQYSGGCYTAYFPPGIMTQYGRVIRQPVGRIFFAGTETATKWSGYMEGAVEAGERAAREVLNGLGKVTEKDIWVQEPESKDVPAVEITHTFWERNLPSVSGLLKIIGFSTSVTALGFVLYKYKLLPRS
It counts as functional.

The structures appear in SMILES notation.
Note: assay procedure not described here.

Acetylcholinesterase, sequence (P22303 whole entry): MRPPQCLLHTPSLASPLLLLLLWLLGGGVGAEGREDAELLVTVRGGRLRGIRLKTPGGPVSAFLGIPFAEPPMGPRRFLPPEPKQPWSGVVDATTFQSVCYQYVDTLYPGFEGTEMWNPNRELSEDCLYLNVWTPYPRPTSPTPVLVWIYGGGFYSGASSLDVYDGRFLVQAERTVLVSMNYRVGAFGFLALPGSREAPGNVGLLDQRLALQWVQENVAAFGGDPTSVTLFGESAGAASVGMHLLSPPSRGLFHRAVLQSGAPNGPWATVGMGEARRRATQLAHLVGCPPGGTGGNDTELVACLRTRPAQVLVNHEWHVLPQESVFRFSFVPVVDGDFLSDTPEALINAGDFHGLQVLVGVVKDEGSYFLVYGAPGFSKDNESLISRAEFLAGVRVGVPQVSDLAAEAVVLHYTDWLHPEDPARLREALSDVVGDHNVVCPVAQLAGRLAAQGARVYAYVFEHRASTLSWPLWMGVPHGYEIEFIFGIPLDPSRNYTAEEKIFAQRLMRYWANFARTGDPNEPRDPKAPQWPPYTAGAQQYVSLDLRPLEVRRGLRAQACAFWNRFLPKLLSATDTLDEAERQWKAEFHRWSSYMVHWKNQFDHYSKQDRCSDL
Sodium-dependent noradrenaline transporter, sequence (P23975 whole entry): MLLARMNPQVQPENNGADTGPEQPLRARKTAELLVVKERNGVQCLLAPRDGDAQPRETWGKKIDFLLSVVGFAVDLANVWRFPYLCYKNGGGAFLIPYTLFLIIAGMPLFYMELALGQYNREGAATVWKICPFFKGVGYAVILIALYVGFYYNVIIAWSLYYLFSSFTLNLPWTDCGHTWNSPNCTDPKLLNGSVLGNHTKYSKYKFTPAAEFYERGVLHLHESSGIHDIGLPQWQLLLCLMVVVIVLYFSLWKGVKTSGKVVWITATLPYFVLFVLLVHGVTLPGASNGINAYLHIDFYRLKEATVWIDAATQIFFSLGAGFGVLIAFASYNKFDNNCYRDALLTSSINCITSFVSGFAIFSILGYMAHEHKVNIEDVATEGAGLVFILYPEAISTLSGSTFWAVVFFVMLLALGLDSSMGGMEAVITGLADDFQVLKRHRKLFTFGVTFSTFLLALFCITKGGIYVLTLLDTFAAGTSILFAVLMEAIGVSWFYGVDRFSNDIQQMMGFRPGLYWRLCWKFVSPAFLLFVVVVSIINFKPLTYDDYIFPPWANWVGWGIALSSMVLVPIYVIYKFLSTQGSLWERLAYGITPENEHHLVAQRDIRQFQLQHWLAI
Prostaglandin G/H synthase 1, sequence (P23219 whole entry): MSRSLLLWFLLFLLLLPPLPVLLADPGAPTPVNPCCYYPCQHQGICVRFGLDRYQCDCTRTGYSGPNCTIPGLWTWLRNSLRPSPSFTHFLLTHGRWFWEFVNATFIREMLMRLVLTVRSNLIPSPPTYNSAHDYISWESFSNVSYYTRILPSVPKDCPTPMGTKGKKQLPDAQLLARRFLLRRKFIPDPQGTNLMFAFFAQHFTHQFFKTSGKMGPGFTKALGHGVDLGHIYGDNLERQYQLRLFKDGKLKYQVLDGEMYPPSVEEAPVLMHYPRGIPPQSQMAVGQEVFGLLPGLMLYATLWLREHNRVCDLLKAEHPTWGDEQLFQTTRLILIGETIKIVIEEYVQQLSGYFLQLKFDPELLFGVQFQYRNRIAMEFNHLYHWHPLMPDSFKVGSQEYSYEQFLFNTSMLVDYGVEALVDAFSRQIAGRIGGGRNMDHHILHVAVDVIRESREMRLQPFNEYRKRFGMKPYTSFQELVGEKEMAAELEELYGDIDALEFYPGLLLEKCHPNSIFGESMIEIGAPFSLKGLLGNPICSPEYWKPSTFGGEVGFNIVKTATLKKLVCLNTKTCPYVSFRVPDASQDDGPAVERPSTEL
cGMP-inhibited 3',5'-cyclic phosphodiesterase 3A, sequence (Q14432 whole entry): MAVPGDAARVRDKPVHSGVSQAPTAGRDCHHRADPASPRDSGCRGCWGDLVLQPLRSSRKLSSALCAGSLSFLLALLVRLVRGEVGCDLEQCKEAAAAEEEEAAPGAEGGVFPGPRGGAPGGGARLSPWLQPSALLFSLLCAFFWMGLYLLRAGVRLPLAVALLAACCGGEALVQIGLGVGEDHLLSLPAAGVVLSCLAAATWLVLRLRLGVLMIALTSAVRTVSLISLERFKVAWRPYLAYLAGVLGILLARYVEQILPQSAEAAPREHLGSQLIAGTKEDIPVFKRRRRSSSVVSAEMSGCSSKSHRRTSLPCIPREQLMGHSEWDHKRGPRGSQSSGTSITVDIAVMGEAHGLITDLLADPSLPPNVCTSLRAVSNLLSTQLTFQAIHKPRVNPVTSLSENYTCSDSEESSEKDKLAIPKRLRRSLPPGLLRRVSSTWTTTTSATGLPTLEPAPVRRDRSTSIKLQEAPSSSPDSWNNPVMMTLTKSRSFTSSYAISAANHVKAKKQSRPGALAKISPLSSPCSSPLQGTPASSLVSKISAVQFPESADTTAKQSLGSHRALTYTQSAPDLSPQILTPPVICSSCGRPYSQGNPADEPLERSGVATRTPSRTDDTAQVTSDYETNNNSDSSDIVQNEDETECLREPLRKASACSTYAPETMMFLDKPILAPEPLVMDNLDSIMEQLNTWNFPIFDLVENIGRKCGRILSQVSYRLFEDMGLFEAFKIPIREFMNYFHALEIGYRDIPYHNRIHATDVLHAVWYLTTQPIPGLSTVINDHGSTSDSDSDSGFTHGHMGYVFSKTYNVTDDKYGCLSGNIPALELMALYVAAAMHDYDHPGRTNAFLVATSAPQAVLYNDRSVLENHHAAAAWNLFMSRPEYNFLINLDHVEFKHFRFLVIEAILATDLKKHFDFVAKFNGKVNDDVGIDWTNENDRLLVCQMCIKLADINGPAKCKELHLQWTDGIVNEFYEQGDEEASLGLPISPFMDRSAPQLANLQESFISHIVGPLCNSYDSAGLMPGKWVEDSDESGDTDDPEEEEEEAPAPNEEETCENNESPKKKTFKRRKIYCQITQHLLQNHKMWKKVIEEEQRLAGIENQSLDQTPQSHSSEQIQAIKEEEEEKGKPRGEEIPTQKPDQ

For `CCOC(=O)C(c1c(O)c2ccccc2oc1=O)c1c(O)c2ccccc2oc1=O` [ETHYL BISCOUMACETATE], the AC50 (in [1]; in [2]; in experiment [3]; on Thromboxane A2 receptor; on Progesterone receptor; in experiment [4]) was greater than 30 µM in each case. Moreover, the AC50 (at Acetylcholinesterase; in experiment [5]; in experiment [6]) was greater than 30 µM in each case.
Take `CC(C)Cc1ccc(C(C)C(=O)NO)cc1` (stereo not drawn) [IBUPROXAM]: the AC50 (in experiment [1]; in experiment [2]; in experiment [3]; at Thromboxane A2 receptor; at Progesterone receptor; in experiment [4]) was greater than 30 µM each time. In addition, the AC50 (at Acetylcholinesterase; in experiment [5]; in [6]) was greater than 30 µM throughout.
In the case of `CC[C@@H]1/C=C(\C)C[C@H](C)C[C@H](OC)[C@H]2O[C@@](O)(C(=O)C(=O)N3CCCC[C@H]3C(=O)O[C@H](/C(C)=C/[C@@H]3CC[C@H](Cl)[C@H](OC)C3)[C@H](C)[C@@H](O)CC1=O)[C@H](C)C[C@@H]2OC` [PIMECROLIMUS], the AC50 in [1] was greater than 30 µM; in experiment [2], greater than 30 µM; in experiment [3], greater than 30 µM; at Thromboxane A2 receptor, greater than 30 µM; at Progesterone receptor it was greater than 30 µM; in experiment [4], greater than 3 µM. For the same compound, the concentration at half-maximal activity (AC50) (on Acetylcholinesterase; in [5]; in [6]) was greater than 30 µM in each case.
For the compound `CN(Cc1cc(Br)cc(Br)c1N)C1CCCCC1` [BROMHEXINE], the AC50 in experiment [1] was greater than 30 µM; in [2], greater than 30 µM; in experiment [3], 22 µM; on Thromboxane A2 receptor it was greater than 30 µM; at Progesterone receptor it was greater than 30 µM; in [4] it was greater than 30 µM. Further, the AC50 (on Acetylcholinesterase; in experiment [5]; in [6]) was greater than 30 µM each time.
`COc1cc(NCc2ccc3nc(N)nc(N)c3c2C)cc(OC)c1OC` [TRIMETREXATE]: the AC50 in experiment [1] is 3.6 µM; in experiment [2] it was 28.1 µM; in experiment [3], 12.3 µM; on Thromboxane A2 receptor, greater than 30 µM; on Progesterone receptor, greater than 30 µM; in experiment [4] it was 11.9 µM. Also, the concentration at half-maximal activity (AC50) at Acetylcholinesterase was 1.62 µM; in [5], greater than 30 µM; in experiment [6], 3.8 µM.
`O=C(c1ccc(F)c(F)c1Nc1ccc(I)cc1F)N1CC(O)([C@@H]2CCCCN2)C1` [COBIMETINIB]: the AC50 in [1] was 13.8 µM; in experiment [2] it was greater than 30 µM; in experiment [3], 16.9 µM; on Thromboxane A2 receptor, 17.6 µM; at Progesterone receptor it was greater than 30 µM; in experiment [4] it was greater than 30 µM. For the same compound, the AC50 on Acetylcholinesterase is greater than 30 µM; in experiment [5], 13.6 µM; in experiment [6] it was greater than 30 µM.
As to `Oc1cccc2cccnc12` [OXYQUINOLINE], the half-maximal activity concentration (AC50) (in experiment [1]; in [2]; in experiment [3]; on Thromboxane A2 receptor; at Progesterone receptor; in [4]) was greater than 30 µM each time. In addition, the AC50 was greater than 30 µM at Acetylcholinesterase, 20.8 µM in [5] and greater than 30 µM in experiment [6].
For `Nc1nc2c(ncn2CCC(CO)CO)c(=O)[nH]1` [PENCICLOVIR], the half-maximal activity concentration (AC50) (in experiment [1]; in experiment [2]; in experiment [3]; at Thromboxane A2 receptor; at Progesterone receptor; in [4]) was greater than 30 µM throughout. In addition, the AC50 (on Acetylcholinesterase; in experiment [5]; in [6]) was greater than 30 µM throughout.
In the case of `CC1=NN(c2ccccc2)C(=O)C1` [EDARAVONE], the concentration at half-maximal activity (AC50) in experiment [1] was 26.5 µM; in experiment [2] it was greater than 30 µM; in experiment [3], greater than 30 µM; on Thromboxane A2 receptor, greater than 30 µM; at Progesterone receptor, greater than 30 µM; in experiment [4] it was greater than 30 µM. The AC50 (on Acetylcholinesterase; in experiment [5]; in experiment [6]) was greater than 30 µM throughout.
As for `O=C(O)c1cccc(-c2noc(-c3ccccc3F)n2)c1`, the AC50 (in experiment [1]; in experiment [2]; in experiment [3]; at Thromboxane A2 receptor; at Progesterone receptor; in experiment [4]) was greater than 30 µM each time. Also, the AC50 (at Acetylcholinesterase; in experiment [5]; in experiment [6]) was greater than 30 µM throughout.
For `COc1ccc(-c2cc(=O)c3c(O)cc(O[C@@H]4O[C@H](CO[C@@H]5O[C@@H](C)[C@H](O)[C@@H](O)[C@H]5O)[C@@H](O)[C@H](O)[C@H]4O)cc3o2)cc1O` [DIOSMIN], the AC50 (in [1]; in [2]; in experiment [3]; on Thromboxane A2 receptor; on Progesterone receptor; in experiment [4]) was greater than 30 µM in each case. The AC50 (at Acetylcholinesterase; in experiment [5]; in experiment [6]) was greater than 30 µM each time.
As to `CO[C@@]12[C@H](COC(N)=O)C3=C(C(=O)C(C)=C(N)C3=O)N1C[C@@H]1N[C@@H]12` [MITOMYCIN], the AC50 (in experiment [1]; in [2]; in experiment [3]; at Thromboxane A2 receptor; at Progesterone receptor; in experiment [4]) was greater than 30 µM in each case. Besides, the AC50 (at Acetylcholinesterase; in experiment [5]; in experiment [6]) was greater than 30 µM throughout.

One may read the AC50 as the concentration giving half of the maximal activity seen. High values mean weaker potency, low ones greater potency.
